In patent US12083100B1, “Antiparasitic isoxazoline compounds, long-acting injectable formulations comprising them, methods and uses thereof” (BOEHRINGER INGELHEIM ANIMAL HEALTH USA INC., priority 2016, dated 2024):

Tested on: Rhipicephalus microplus ticks
Assay: Efficacy of injectable formulation against Rhipicephalus (Boophilus) microplus ticks on cattle
Assay type: in vivo
Conditions: for Average % Efficacy (Tick Count): vs untreated control; for efficacy and duration of activity against Rhipicephalus microplus compared with other isoxazoline compounds / speed of onset of efficacy against Rhipicephalus microplus compared with other isoxazoline compounds: injectable composition, compared with afoxolaner, (If) or (S)-If
Experimental: The efficacy of long-acting injectable compositions of the invention comprising the compounds of formula (Ie) and (S)-Ie, against Rhipicephalus microplus ticks on cattle was determined against an untreated control group. The efficacy of compositions comprising the compounds (Ie) and (S)-e were also compared with injectable compositions comprising afoxolaner (formula Ia, 4-[5-[3-chloro-5-(trifluoromethyl)phenyl]-4,5-dihydro-5-(trifluoromethyl)-3-isoxazolyl]-N-[2-oxo-2-[(2,2,2-trifluoroethyl)amino]ethyl]-1-naphthalanecarboxamide), and comparative compounds of formulae (If) and (S)-If shown below.
Each compound was formulated in an injectable composition at a concentration of 10% (w/v) in a carrier comprising 8% (w/v) ethanol and Q.S. with polyethylene glycol 400. The racemic compounds afoxolaner and (If) were dosed at 1.0 mg/kg body weight and the (S)-enantiomers ((S)-Ie and (S)-If) were dosed at 0.5 mg/kg body weight. Six healthy head of cattle were used in each study group. Cattle in Group 1 were untreated (control). Cattle in Groups 2, 3, 4, 5 and 6 were treated on Day 0 subcutaneously with injectable compositions comprising the compounds of formula Ie, (S)-If, (S)-Ie, afoxolaner (Ia) and (If), respectively. Several weeks before treatment, cattle were infested three times a week with approximately 2500 Rhipicephalus microplus larvae to establish ongoing infestations. Each animal was challenged by infestation with approximately 5000 R. microplus larvae on Days 7 and 21 and every 14 days thereafter. Ticks dropping from each animal in the previous 24 hours were collected daily and counted from Day 1 until the end of the study.

[1] = Day 5, 1.0 mg/kg subcutaneous on Day 0 (racemic compounds)
[2] = Day 10, 1.0 mg/kg subcutaneous on Day 0 (racemic compounds)
[3] = Day 20, 1.0 mg/kg subcutaneous on Day 0 (racemic compounds)
[4] = Day 30, 1.0 mg/kg subcutaneous on Day 0 (racemic compounds)
[5] = Day 40, 1.0 mg/kg subcutaneous on Day 0 (racemic compounds)
[6] = Day 49, 1.0 mg/kg subcutaneous on Day 0 (racemic compounds)
[7] = Day 55, 1.0 mg/kg subcutaneous on Day 0 (racemic compounds)
[8] = Day 60, 1.0 mg/kg subcutaneous on Day 0 (racemic compounds)
[9] = Day 65, 1.0 mg/kg subcutaneous on Day 0 (racemic compounds)
[10] = Day 70, 1.0 mg/kg subcutaneous on Day 0 (racemic compounds)
[11] = Day 75, 1.0 mg/kg subcutaneous on Day 0 (racemic compounds)
[12] = listed as formula (Ic) wherein X^1 is chloro, X^2 is fluoro and X^3 is CF3
[13] = listed as formula (Id) in which Y is Y-2, Q is —C(O)NHCH2C(O)NHCH2CF3, X^1 is fluoro and X

Question: O=C(CNC(=O)c1ccc(C2=NOC(c3cc(Cl)c(F)c(C(F)(F)F)c3)(C(F)(F)F)C2)c2ccccc12)NCC(F)(F)F (racemic) [Ie] was tested. Which “Average % Efficacy (Tick Count)” value [1] did it give?
Answer: 69%

Question: And the “Average % Efficacy (Tick Count)” value [2]?
Answer: 100%

Question: And the “Average % Efficacy (Tick Count)” value [3]?
Answer: 100%

Question: What about the “Average % Efficacy (Tick Count)” value [4] of the same molecule?
Answer: 100%

Question: And the “Average % Efficacy (Tick Count)” value [5]?
Answer: 100%

Question: What about the “Average % Efficacy (Tick Count)” value [6] of the same molecule?
Answer: 100%

Question: What about the “Average % Efficacy (Tick Count)” value [7] of the same molecule?
Answer: 100%

Question: What about the “Average % Efficacy (Tick Count)” value [8] of the same molecule?
Answer: 100%

Question: What about the “Average % Efficacy (Tick Count)” value [9] of the same molecule?
Answer: 100%

Question: What about the “Average % Efficacy (Tick Count)” value [10] of the same molecule?
Answer: 100%

Question: What about the “Average % Efficacy (Tick Count)” value [11] of the same molecule?
Answer: 100%

Question: And the “Average % Efficacy (Tick Count)” value (Day 80, 1.0 mg/kg subcutaneous on Day 0 (racemic compounds))?
Answer: 100%

Question: What about the “Average % Efficacy (Tick Count)” value (Day 85, 1.0 mg/kg subcutaneous on Day 0 (racemic compounds)) of the same molecule?
Answer: 100%

Question: And the “Average % Efficacy (Tick Count)” value (Day 88, 1.0 mg/kg subcutaneous on Day 0 (racemic compounds))?
Answer: 100%

Question: What about the “Average % Efficacy (Tick Count)” value (Day 95, 1.0 mg/kg subcutaneous on Day 0 (racemic compounds)) of the same molecule?
Answer: 100%

Question: And the “Average % Efficacy (Tick Count)” value (Day 100, 1.0 mg/kg subcutaneous on Day 0 (racemic compounds))?
Answer: 100%

Question: And the “Average % Efficacy (Tick Count)” value (Day 105, 1.0 mg/kg subcutaneous on Day 0 (racemic compounds))?
Answer: 93%

Question: And the “Average % Efficacy (Tick Count)” value (Day 110, 1.0 mg/kg subcutaneous on Day 0 (racemic compounds))?
Answer: 82%

Question: What about the “efficacy and duration of activity against Rhipicephalus microplus compared with other isoxazoline compounds” value of the same molecule?
Answer: surprising and unexpected efficacy

Question: And the “speed of onset of efficacy against Rhipicephalus microplus compared with other isoxazoline compounds” value (listed as Je)?
Answer: faster-acting

Question: And the “efficacy and duration of activity against Rhipicephalus microplus compared with other isoxazoline compounds” value [12]?
Answer: surprisingly long-lasting and excellent efficacy

Question: And the “speed of onset of efficacy against Rhipicephalus microplus compared with other isoxazoline compounds” value [12]?
Answer: quick onset

Question: And the “efficacy and duration of activity against Rhipicephalus microplus compared with other isoxazoline compounds” value [13]?
Answer: surprisingly improved duration of activity

Question: And the “speed of onset of efficacy against Rhipicephalus microplus compared with other isoxazoline compounds” value [13]?
Answer: surprisingly improved fast-acting efficacy

Question: What does the source list for O=C(CNC(=O)c1ccc(C2=NOC(c3cc(Cl)cc(C(F)(F)F)c3)(C(F)(F)F)C2)c2ccccc12)NCC(F)(F)F (racemic) [afoxolaner, 4-[5-[3-chloro-5-(trifluoromethyl)phenyl]-4,5-dihydro-5-(trifluoromethyl)-3-isoxazolyl]-N-[2-oxo-2-[(2,2,2-trifluoroethyl)amino]ethyl]-1-naphthalanecarboxamide, reference compound]?
Answer: Average % Efficacy (Tick Count) [1]: 38%; Average % Efficacy (Tick Count) [2]: 48%; Average % Efficacy (Tick Count) [3]: 77%; Average % Efficacy (Tick Count) [4]: 99%; Average % Efficacy (Tick Count) [5]: 100%; Average % Efficacy (Tick Count) [6]: 94%; Average % Efficacy (Tick Count) [7]: 73%; Average % Efficacy (Tick Count) [8]: 71%; Average % Efficacy (Tick Count) [9]: 48%; Average % Efficacy (Tick Count) [10]: 3%; Average % Efficacy (Tick Count) [11]: 0%

Question: Which “Average % Efficacy (Tick Count)” value [1] does the source give for O=C(CNC(=O)c1ccc(C2=NOC(c3cc(Cl)cc(Cl)c3)(C(F)(F)F)C2)c2ccccc12)NCC(F)(F)F (stereo not shown) [If, reference compound] here?
Answer: 70%

Question: And the “Average % Efficacy (Tick Count)” value [2]?
Answer: 62%

Question: What about the “Average % Efficacy (Tick Count)” value [3] of the same molecule?
Answer: 57%

Question: And the “Average % Efficacy (Tick Count)” value [4]?
Answer: 84%

Question: And the “Average % Efficacy (Tick Count)” value [5]?
Answer: 100%

Question: And the “Average % Efficacy (Tick Count)” value [6]?
Answer: 70%

Question: What about the “Average % Efficacy (Tick Count)” value [7] of the same molecule?
Answer: 14%

Question: What does the source list for O=C(CNC(=O)c1ccc(C2=NO[C@@](c3cc(Cl)cc(Cl)c3)(C(F)(F)F)C2)c2ccccc12)NCC(F)(F)F [(S)-If, reference compound]?
Answer: Average % Efficacy (Tick Count) (Day 5, 0.5 mg/kg subcutaneous on Day 0 ((S)-enantiomers)): 39%; Average % Efficacy (Tick Count) (Day 10, 0.5 mg/kg subcutaneous on Day 0 ((S)-enantiomers)): 27%; Average % Efficacy (Tick Count) (Day 20, 0.5 mg/kg subcutaneous on Day 0 ((S)-enantiomers)): 33%; Average % Efficacy (Tick Count) (Day 30, 0.5 mg/kg subcutaneous on Day 0 ((S)-enantiomers)): 86%; Average % Efficacy (Tick Count) (Day 40, 0.5 mg/kg subcutaneous on Day 0 ((S)-enantiomers)): 100%; Average % Efficacy (Tick Count) (Day 49, 0.5 mg/kg subcutaneous on Day 0 ((S)-enantiomers)): 36%; Average % Efficacy (Tick Count) (Day 55, 0.5 mg/kg subcutaneous on Day 0 ((S)-enantiomers)): 0%
